Measurements from patent publication US20240252552A1, “LIPOTEICHOIC ACID FROM STAPHYLOCOCCUS EPIDERMIDIS AND ITS USE TO MODULATE NEURONAL ACTIVITY VIA PD-1 INHIBITORY SIGNALLING IN NEURONS” (Northwestern University, priority 2023, published 2024).
“Also recorded” adds a separate entry of the source.

How the values were obtained:
[1] = test system: PD-1; experiment: PD-1 expression in ex vivo dorsal root ganglion culture (immunofluorescence, qPCR); type: cell-based; conditions: ex vivo DRG, MMG11 + SELTA, TLR2 blockade
Source text: FIGS. 5A, 5B, 5C, 5D, and 5E. […] Scale bars=10 μm. (B) Distribution of intensity of PD-1 immunoreactivity in DRG based on the size of individual neurons in control (upper) and SELTA treatment (bottom). […] For all quantification analysis, a two-way ANOVA was used. *P<0.05, **P<0.01, #P<0.05. n=3 to 4 per group.
SELTA elevated PD-1 expression in primary sensory neurons. The inventor next examined PD-1 expression in the primary afferent neurons following direct exposure to SELTA. The inventor performed an ex vivo dorsal root ganglion (DRG) culture using DRG isolated at the levels of L2 to S1. Following 24-hour co-culture with SELTA, the expression of PD-1 was probed using immunofluorescence followed by confocal microscopy (FIG. 5A). To ascertain the cellular distribution of increased PD-1 expression, ImageJ analyses-based on individual cells were done and presented as the function of PD-1 immunoreactivity intensity to the cell size (FIG. 5B). Quantification was based on cell size-differential average fluorescence intensity (FIG. 5C). […] To further understand the expression of PD-1, immunoreactive intensities were normalized to the neuronal marker Neu-N (FIG. 5D). Changes were largely similar to FIG. 5C. The inventor next sought to examine whether the SELTA receptor TLR2 was involved in the modulation of PD-1 expression by SELTA. […]

[2] = test system: trigeminal ganglion (TG) neurons; experiment: Real-time Ca2+ imaging (fura-2 AM) of ATP-stimulated TG neuronal cultures; type: cell-based, C57Bl/6 mice; conditions: TG neurons preincubated with MMG11
Source text: FIG. 8. […] Analysis with Student's t test, p<0.0001.
SELTA-induced inhibition of Ca^2+ influx is reversed by neutralizing PD-1. In the transduction of nociceptive signal, Ca^2+ influx through voltage-gated Ca^2+ channels is critical for neurotransmitter release and synaptic transmission (12-14). To investigate whether intracellular Ca^2+ dynamics in the afferents are affected by SELTA (8, 15), the inventor established in vitro trigeminal ganglion (TG) neuronal cultures from adult C57Bl/6 mice and performed real-time Ca^2+ imaging using fura-2 AM (FIG. 8). Cells were pretreated with vehicle or SELTA prior to stimulation with 20 uM ATP. TLR2 specificity of these effects were examined by using MMG11, a TLR2-specific antagonist (10) and PD-1 requirement was examined by pre-incubation with an anti-PD-1 antibody (16).

## CCOC(=O)c1ccc(CC(=O)c2ccc(O)c(O)c2O)o1 [MMG11]
[1]
  effect on SELTA-induced PD-1 mRNA expression (qPCR): abrogated the elevation in PD-1 expression
[2]
  effect of TLR2 blockade on SELTA-mediated inhibition of Ca2+ influx: abrogated the SELTA mediated inhibition of Ca^2+ influx; also recorded: reverses SELTA-induced reduction of Ca2+ influx
